The values below come from patent US20190152967A1, “PEROXISOME PROLIFERATOR-ACTIVATED RECEPTOR GAMMA SELECTIVE AGONISTS FOR INHIBITION OF RETINAL PIGMENT EPITHELIUM DEGENERATION OR GEOGRAPHIC ATROPHY” (The Schepens Eye Research Institute, Inc., priority 2016, published 2019).

What is called IC50 is the midpoint of a concentration-inhibition curve. For orientation: EC50 means the midpoint of the concentration-response curve.

The subject of assay [1] is caspase-1 activation in ARPE-19 cells. The assay can be described thus: ox-LDL-induced caspase-1 activation (FLICA probe) in ARPE-19 cells. As to conditions: ARPE-19 serum-starved 24 hr, ox-LDL 100 μg/ml, troglitazone 1.3 μM, 48 hr. Type of assay: cell-based. An excerpt:
Cells were imaged by fluorescent microscope and the numbers of capase-1 positive cells for each treatment group were quantified by a masked investigator.

Another assay relates to human primary RPE cells. Kind of assay: ox-LDL-induced cell death of human primary RPE.
A further assay has as its system primary human RPE cells. The assay can be described thus: chloroquine-induced death of primary human RPE cells.
A further assay has as its system ARPE-19 cells. The assay can be described thus: ox-LDL-induced RPE (ARPE-19) cell death. The assay is classed as cell-based. The following applies: for protection of RPE from ox-LDL-induced cell death (FIG. 7): UVI3003 20 μM, troglitazone 1.3 μM alone or in combination with T0070907 and GW9662; for effect on the protection by PPARγ agonist troglitazone on RPE (FIG. 7): ARPE-19, ox-LDL, combined with troglitazone (1.3 μM). The procedure:
In FIG. 1B, ARPE-19 cells were treated for 48 hr with LDL or ox-LDL at 25, 50, or 100 μg/ml. Conditioned media were harvested, and LDH levels were quantified to evaluate cell death.
FIG. 5 is a bar graph showing testing different PPARγ agonists for RPE (ARPE-19) protection.
FIG. 7 is a bar graph showing testing the effect of different PPAR(α, γ) and RXR antagonists in ox-LDL-induced RPE (ARPE-19) cell death.

Assay [2] relates to PPARγ target genes (ANGPT, ACOX3) in ARPE19 cells. Kind of assay: PPARγ target genes expression in ARPE19 cells. As to conditions: 48-hour treatment, troglitazone vs. rosiglitazone.
The target of assay [3] is T1, PPARγ (Homo sapiens, UniProt P37231).
T1 sequence (P37231 1-505): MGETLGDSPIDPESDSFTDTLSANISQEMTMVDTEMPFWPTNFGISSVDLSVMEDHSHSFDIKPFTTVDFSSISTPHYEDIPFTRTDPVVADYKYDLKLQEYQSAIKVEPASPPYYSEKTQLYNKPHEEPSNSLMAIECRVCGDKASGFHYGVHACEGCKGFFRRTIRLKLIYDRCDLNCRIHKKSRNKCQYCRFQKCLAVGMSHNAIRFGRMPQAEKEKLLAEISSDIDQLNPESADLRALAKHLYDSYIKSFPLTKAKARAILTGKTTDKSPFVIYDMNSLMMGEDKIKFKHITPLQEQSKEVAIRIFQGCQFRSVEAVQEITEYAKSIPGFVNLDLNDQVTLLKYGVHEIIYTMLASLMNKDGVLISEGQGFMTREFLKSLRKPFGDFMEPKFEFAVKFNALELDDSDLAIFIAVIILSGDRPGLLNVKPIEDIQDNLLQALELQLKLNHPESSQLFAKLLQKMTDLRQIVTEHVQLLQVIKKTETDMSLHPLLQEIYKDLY
As to conditions: PPARγ antagonist; cited from earlier work.

Assay [4] concerns the target T1, PPARγ. The following applies: PPARγ agonist; cited from earlier work.
For another assay, the system named is RXR. As to conditions: RXR antagonist; cited from earlier work.

Description for human primary RPE cells: For both, RPE cells were treated with 500 μg/mL of ox-LDL for 48 hr. Data=mean±SEM, **P<0.01 and ***P<0.001 compared to ox-LDL group (2-tailed unpaired t-test).
Data=mean±SEM, ***P<0.001 compared to ox-LDL group (2-tailed unpaired t-test).

Turning to `Cc1c(C)c2c(c(C)c1O)CCC(C)(COc1ccc(CC3SC(=O)NC3=O)cc1)O2` (racemic) [troglitazone, (RS)-5-(4-[(6-hydroxy-2,5,7,8-tetramethylchroman-2-yl)methoxy]benzyl)thiazolidine-2,4-dione], the “suppression of ox-LDL-induced caspase-1 activation (FIG. 3)” value in assay [1] is “significantly suppressed ox-LDL-induced caspase-1 activation”. In addition, the “decrease of ox-LDL-induced cell death (FIG. 2B)” value with human primary RPE cells (human primary RPE, 500 μg/mL ox-LDL for 48 hr, doses of 0.65 μM and 0.98 μM) is “significantly decreased cell death in a dose-dependent manner”. Further, the “suppression of ox-LDL-induced death of primary human RPE cells (FIG. 4)” value with human primary RPE cells (primary human RPE cells) is on record as “significantly suppressed ox-LDL-induced death”. The “suppression of RPE death induced by chloroquine (FIG. 4)” value with primary human RPE cells is “ineffective”. Further, the “protection of RPE from ox-LDL-induced cell death (FIG. 7)” value (“protection of RPE … (FIG. 7)” for short) in the assay with ARPE-19 cells (ARPE-19) is “significantly protected the RPE against ox-LDL-induced cell death”. Also, in the assay on ARPE-19 cells (ARPE-19, troglitazone at 0.65 and 3.25 μM), the “protection of RPE from ox-LDL-induced cell death (FIG. 5)” value is reported as “significantly protected RPE cell from ox-LDL-induced cell death”. Besides, the “expression levels of PPARγ target genes ANGPT (angiopoietin-like-4) and ACOX3 (FIGS. 6A-B)” value in assay [2] is given as “differentially affected”.
`CCC(=O)NC[C@H](Cc1ccc(OCCc2nc(-c3ccccc3)oc2C)cc1)N/C(C)=C\C(=O)c1ccc(C(F)(F)F)cc1` [GW6471]: the “protection of RPE … (FIG. 7)” value in the assay with ARPE-19 cells (ARPE-19) is listed as “no detectable effect in RPE protection”.
`O=C(Nc1ccccc1)c1cc([N+](=O)[O-])ccc1Cl` [GW9662]: the “effect on the protection by PPARγ agonist troglitazone on RPE (FIG. 7)” value with ARPE-19 cells was “did not affect the protection effect”. The “protection of RPE … (FIG. 7)” value in the assay with ARPE-19 cells (ARPE-19) was “did not have any detectable protection effect”. Further, the IC50 at PPARγ [3] is less than 100 nM.
`O=C1NC(=O)C(Cc2ccc3cc(OCc4ccccc4F)ccc3c2)S1` (stereo not drawn) [MCC-555]: the “EC50 relative to rosiglitazone” value at PPARγ [4] is “lower than that of rosiglitazone”.
`CCCCC/C=C/C=C1/C(=O)C=C[C@@H]1C/C=C\CCCC(=O)O` [PGJ2, 15-deoxy-Δ^12,14-Prostaglandin J2]: the EC50 at PPARγ [4] is 2000 to 7000 nM.
As for `O=C(Nc1ccncc1)c1cc([N+](=O)[O-])ccc1Cl` [T0070907], in the assay on ARPE-19 cells, the “effect on the protection by PPARγ agonist troglitazone on RPE (FIG. 7)” value is “did not affect the protection effect”. In the assay on ARPE-19 cells (ARPE-19), the “protection of RPE … (FIG. 7)” value is given as “did not have any detectable protection effect”.
`CCCCCOc1cc2c(cc1-c1cc(/C=C/C(=O)O)ccc1O)C(C)(C)CCC2(C)C` [UVI3003]: in the assay with RXR, the IC50 was less than 1000 nM. In addition, the “protection of RPE … (FIG. 7)” value in the assay with ARPE-19 cells (ARPE-19) was “significantly protected RPE from ox-LDL-induced death”. Also, the “protection of RPE from ox-LDL-induced death” value in the assay with ARPE-19 cells (ARPE-19, UVI3003 at high dose (20 μM)) is on record as “about 100%”.
